Molecular target: T1, hFASN enzyme (full length) (Homo sapiens, UniProt P49327)
T1 construct: 10 μL hFASN enzyme (full length, 300 ng, purified in house); made in house
Test: Fatty Acid Synthase (FASN) inhibition scintillation proximity assay
Format: biochemical
Conditions: for inhibition at 10 µM: read-out: Human FASN % inhibition @ 10 μM, 10 μM test compound; for IC50: read-out: Human FASN pIC50 (converted)
Method in brief: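 Read-out relies on hydrophobic ³H-palmitate product, formed from ³H-acetyl-CoA and malonyl-CoA, binding streptavidin imaging beads, measured at 610±20 nm after at least 24 h. Full-length enzyme (300 ng) in phosphate buffer pH 7.5 with DTT; eight compound concentrations, 0.01–30 μM.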

T1 sequence (P49327 whole entry): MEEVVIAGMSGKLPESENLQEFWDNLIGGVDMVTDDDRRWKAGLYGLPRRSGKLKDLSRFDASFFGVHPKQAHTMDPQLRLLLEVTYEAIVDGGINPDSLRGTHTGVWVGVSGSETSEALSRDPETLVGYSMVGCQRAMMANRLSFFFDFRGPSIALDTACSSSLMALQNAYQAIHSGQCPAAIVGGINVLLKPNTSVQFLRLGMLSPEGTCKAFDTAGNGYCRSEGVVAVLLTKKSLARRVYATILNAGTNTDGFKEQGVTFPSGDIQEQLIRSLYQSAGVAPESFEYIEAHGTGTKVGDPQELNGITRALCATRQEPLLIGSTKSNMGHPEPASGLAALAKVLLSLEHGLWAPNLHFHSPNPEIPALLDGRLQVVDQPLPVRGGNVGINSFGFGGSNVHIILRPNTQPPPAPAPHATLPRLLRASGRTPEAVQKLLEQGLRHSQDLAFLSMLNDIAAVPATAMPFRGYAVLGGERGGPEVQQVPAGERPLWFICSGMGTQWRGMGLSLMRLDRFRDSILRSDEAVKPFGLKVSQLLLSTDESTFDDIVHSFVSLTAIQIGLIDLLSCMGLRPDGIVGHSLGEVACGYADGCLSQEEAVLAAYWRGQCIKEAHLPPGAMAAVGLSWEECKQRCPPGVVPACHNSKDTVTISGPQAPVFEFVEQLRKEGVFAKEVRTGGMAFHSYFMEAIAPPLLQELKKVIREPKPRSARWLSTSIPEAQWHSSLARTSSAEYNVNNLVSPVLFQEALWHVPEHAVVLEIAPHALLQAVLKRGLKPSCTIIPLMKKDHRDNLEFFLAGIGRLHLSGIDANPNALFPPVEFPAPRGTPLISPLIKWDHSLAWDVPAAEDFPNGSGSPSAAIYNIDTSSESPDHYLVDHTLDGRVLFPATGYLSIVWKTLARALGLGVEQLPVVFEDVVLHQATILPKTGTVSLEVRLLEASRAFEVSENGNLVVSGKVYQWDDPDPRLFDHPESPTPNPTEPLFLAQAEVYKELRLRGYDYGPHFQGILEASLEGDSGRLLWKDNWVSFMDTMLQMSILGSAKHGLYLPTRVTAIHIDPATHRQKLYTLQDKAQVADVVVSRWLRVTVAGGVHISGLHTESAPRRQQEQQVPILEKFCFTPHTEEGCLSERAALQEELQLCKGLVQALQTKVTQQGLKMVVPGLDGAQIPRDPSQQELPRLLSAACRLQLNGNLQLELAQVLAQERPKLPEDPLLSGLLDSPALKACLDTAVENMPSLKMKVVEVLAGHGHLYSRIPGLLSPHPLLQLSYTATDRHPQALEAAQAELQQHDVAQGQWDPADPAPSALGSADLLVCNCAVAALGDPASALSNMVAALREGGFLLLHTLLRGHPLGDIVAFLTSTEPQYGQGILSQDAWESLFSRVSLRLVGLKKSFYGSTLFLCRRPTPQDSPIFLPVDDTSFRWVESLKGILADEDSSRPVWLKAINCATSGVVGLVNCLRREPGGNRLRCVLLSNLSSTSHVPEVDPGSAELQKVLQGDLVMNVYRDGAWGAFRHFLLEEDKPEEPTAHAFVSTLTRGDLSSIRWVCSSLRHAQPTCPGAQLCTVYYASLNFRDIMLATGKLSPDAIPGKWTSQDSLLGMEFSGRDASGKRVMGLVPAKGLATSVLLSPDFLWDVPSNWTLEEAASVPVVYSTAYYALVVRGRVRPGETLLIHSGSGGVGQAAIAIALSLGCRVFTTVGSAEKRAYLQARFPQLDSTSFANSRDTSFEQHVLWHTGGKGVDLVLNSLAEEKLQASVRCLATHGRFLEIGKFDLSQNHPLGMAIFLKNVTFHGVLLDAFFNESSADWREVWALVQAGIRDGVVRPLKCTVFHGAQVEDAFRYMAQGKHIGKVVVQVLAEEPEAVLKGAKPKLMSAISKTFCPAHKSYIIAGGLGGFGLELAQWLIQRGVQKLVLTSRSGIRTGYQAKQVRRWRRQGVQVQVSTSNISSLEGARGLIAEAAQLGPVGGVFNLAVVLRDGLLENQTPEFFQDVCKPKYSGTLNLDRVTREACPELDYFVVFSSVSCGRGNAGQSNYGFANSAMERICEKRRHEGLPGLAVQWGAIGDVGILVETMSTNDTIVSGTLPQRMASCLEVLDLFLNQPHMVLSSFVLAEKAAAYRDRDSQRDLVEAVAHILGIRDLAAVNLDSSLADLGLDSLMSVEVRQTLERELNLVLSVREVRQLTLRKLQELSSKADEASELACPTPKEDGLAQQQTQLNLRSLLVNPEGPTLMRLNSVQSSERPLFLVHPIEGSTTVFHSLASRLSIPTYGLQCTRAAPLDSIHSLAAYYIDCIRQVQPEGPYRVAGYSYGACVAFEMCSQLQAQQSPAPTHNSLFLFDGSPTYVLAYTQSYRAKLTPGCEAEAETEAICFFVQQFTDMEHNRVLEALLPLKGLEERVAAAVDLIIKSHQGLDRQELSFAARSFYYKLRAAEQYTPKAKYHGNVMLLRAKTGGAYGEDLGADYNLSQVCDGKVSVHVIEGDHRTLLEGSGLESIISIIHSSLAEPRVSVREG

For `CC(=O)N1CCC2(CC1)N=C(c1ccc(-c3ccc4occc4c3)cc1)N(C[C@@H]1CCN(C(=O)C3CC3)C1)C2=O` [compound 150, 8-Acetyl-2-[4-(1-benzofuran-5-yl)phenyl]-3-{[(3R)-1-(cyclopropylcarbonyl)pyrrolidin-3-yl]methyl}-1,3,8-triazaspiro[4.5]dec-1-en-4-one], which inhibition at 10 µM is on record?
The inhibition at 10 µM was 113%.

And the IC50?
The IC50 was 0.105 µM.

`CC(C)n1ncc2cc(-c3ccc(C4=NC5(CC5)C(=O)N4CC4CN(C(=O)C5CC5)C4)cc3)ccc21` [compound 807, 6-((1-(cyclopropanecarbonyl)azetidin-3-yl)methyl)-5-(4-(1-isopropyl-1H-indazol-5-yl)phenyl)-4,6-diazaspiro[2.4]hept-4-en-7-one] was tested. Which inhibition at 10 µM did it give?
The inhibition at 10 µM was 7%.

And the IC50?
The IC50 was greater than 10 µM.

With `Cc1cc2cc(-c3ccc(C4=NC5(CCN(C(=O)C(C)C)CC5)C(=O)N4C[C@@H]4CCN(C(=O)C5CC5)C4)cc3)ccc2o1` [compound 172, 3-{[(3R)-1-(Cyclopropylcarbonyl)pyrrolidin-3-yl]methyl}-2-[4-(2-methyl-1-benzofuran-5-yl)phenyl]-8-(2-methylpropanoyl)-1,3,8-triazaspiro[4.5]dec-1-en-4-one] as the molecule, how does the inhibition at 10 µM read?
Its inhibition at 10 µM is 108%.

What about the IC50 of the same molecule?
Its IC50 is 0.251 µM.

For `O=C(C1CC1)N1CC[C@@H](CN2C(=O)C3(CC3)N=C2c2ccc(-c3ccc(OC(F)(F)F)cc3)cc2)C1` [compound 125, 6-{[(3R)-1-(Cyclopropylcarbonyl)pyrrolidin-3-yl]methyl}-5-[4′-(trifluoromethoxy)biphenyl-4-yl]-4,6-diazaspiro[2.4]hept-4-en-7-one], which inhibition at 10 µM is on record?
Its inhibition at 10 µM is 64.6%.

What about the IC50 of the same molecule?
Its IC50 is 3.98 µM.

How did the inhibition at 10 µM turn out when `Cn1ncc2cc(-c3ccc(C4=NC5(CC5)C(=O)N4CC4CN(C(=O)C5CC5)C4)cc3F)ccc21` [compound 441, 6-{[1-(Cyclopropylcarbonyl)azetidin-3-yl]methyl}-5-[3-fluoro-4-(1-methyl-1H-indazol-5-yl)phenyl]-4,6-diazaspiro[2.4]hept-4-en-7-one] was run?
Its inhibition at 10 µM is 63%.

And the IC50?
Its IC50 is 3.98 µM.

Which inhibition at 10 µM does the source give for `O=C(C1CC1)N1CC(CN2C(=O)C3(CC3)N=C2c2ccc(-c3ccc4occc4c3)c(F)c2)C1` [compound 415] here?
Its inhibition at 10 µM is 80%.

What about the IC50 of the same molecule?
Its IC50 is 1.26 µM.

Which results are given for `CC(O)C(=O)N1CC[C@@H](CN2C(=O)C3(CCOC3)N=C2c2ccc(-c3ccc4occc4c3)cc2)C1` (stereo partly drawn) [compound 687, 2-[4-(1-Benzofuran-5-yl)phenyl]-3-{[(3R)-1-(2-hydroxypropanoyl)pyrrolidin-3-yl]methyl}-7-oxa-1,3-diazaspiro[4.4]non-1-en-4-one]?
inhibition at 10 µM: 73%; IC50: 2.88 µM

With `Cn1cc(-c2ccc(-c3ccc(C4=NC5(CCOC5)C(=O)N4CC4CN(C(=O)c5nccs5)C4)cc3)cc2)cn1` (stereo not shown) [compound 901, 2-(4′-(1-methyl-1H-pyrazol-4-yl)-[1,1′-biphenyl]-4-yl)-3-((1-(thiazol-2-carbonyl)azetidin-3-yl)methyl)-7-oxa-1,3-diazaspiro[4.4]non-1-en-4-one] as the molecule, how does the inhibition at 10 µM read?
Its inhibition at 10 µM is 2%.

And the IC50?
The IC50 was greater than 10 µM.

What does the source list for `CS(=O)(=O)N1CC[C@@H](CN2C(=O)C3(CCOC3)N=C2c2ccc(-c3ccc4occc4c3)cc2)C1` (stereo partly drawn) [compound 914, 2-(4-(benzofuran-5-yl)phenyl)-3-(((S)-1-(methylsulfonyl)pyrrolidin-3-yl)methyl)-7-oxa-1,3-diazaspiro[4.4]non-1-en-4-one]?
inhibition at 10 µM: 1%; IC50: > 10 µM

How did the inhibition at 10 µM turn out when `O=C([C@H]1CCCO1)N1CC[C@@H](CN2C(=O)C3(CCCC3)N=C2c2ccc(-c3ccc4occc4c3)cc2)C1` [compound 191, 2-[4-(1-Benzofuran-5-yl)phenyl]-3-({(3R)-1-[(2R)-tetrahydro-furan-2-ylcarbonyl]pyrrolidin-3-yl}methyl)-1,3-diazaspiro[4.4]non-1-en-4-one] was run?
The inhibition at 10 µM was 108%.

And the IC50?
Its IC50 is 0.0794 µM.

Which results are given for `Cn1cc(-c2ccc(-c3ccc(C4=NC5(CCOCC5)C(=O)N4C[C@@H]4CCN(C(=O)C(F)(F)F)C4)cc3)cc2)cn1` [compound 659, 2-[4′-(1-Methyl-1H-pyrazol-4-yl)biphenyl-4-yl]-3-{[(3R)-1-(trifluoroacetyl)pyrrolidin-3-yl]methyl}-8-oxa-1,3-diazaspiro[4.5]dec-1-en-4-one]?
inhibition at 10 µM: 38%; IC50: ~8.32 µM

With `COC(=O)N1CC(CN2C(=O)C3(CCOCC3)N=C2c2ccc(-c3ccc(-c4cnn(C)c4)cc3)cc2)C1` [compound 936, methyl 3-((2-(4′-(1-methyl-1H-pyrazol-4-yl)-[1,1′-biphenyl]-4-yl)-4-oxo-8-oxa-1,3-diazaspiro[4.5]dec-1-en-3-yl)methyl)azetidine-1-carboxylate] as the molecule, how does the inhibition at 10 µM read?
The inhibition at 10 µM was 7%.

And the IC50?
Its IC50 is greater than 10 µM.

How did the inhibition at 10 µM turn out when `O=C(C1CC1)N1CCC2(CC1)N=C(c1ccc(-c3ccc4occc4c3)cc1)N(C[C@@H]1CCN(C(=O)C3CC3)C1)C2=O` [compound 152, 2-[4-(1-Benzofuran-5-yl)phenyl]-8-(cyclopropylcarbonyl)-3-{[(3R)-1-(cyclopropylcarbonyl)pyrrolidin-3-yl]methyl}-1,3,8-triazaspiro[4.5]dec-1-en-4-one] was run?
Its inhibition at 10 µM is 123%.

What about the IC50 of the same molecule?
Its IC50 is 0.123 µM.

Which results are given for `O=C(C1CC1)N1CC[C@@H](CN2C(=O)C3(CCCC3)N=C2c2ccc(-c3ccncc3)cc2)C1` [compound 3, 3-{[(3R)-1-(Cyclopropylcarbonyl)pyrrolidin-3-yl]methyl}-2-(4-pyridin-4-ylphenyl)-1,3-diazaspiro[4.4]non-1-en-4-one]?
inhibition at 10 µM: 44.3%; IC50: > 10 µM

With `O=C(C1CC1)N1CCC[C@H](CN2C(=O)C3(CC3)N=C2c2ccc(-c3ccc4occc4c3)cc2)C1` [compound 818, (S)-5-(4-(benzofuran-5-yl)phenyl)-6-((1-(cyclopropanecarbonyl)piperidin-3-yl)methyl)-4,6-diazaspiro[2.4]hept-4-en-7-one] as the molecule, how does the inhibition at 10 µM read?
The inhibition at 10 µM was 2%.

And the IC50?
Its IC50 is greater than 10 µM.

`Cn1c(=O)c2cc(-c3ccc(C4=NC5(CC5)C(=O)N4C[C@@H]4CCN(C(=O)C5CC5)C4)cc3)ccc2n1C` [compound 500, 5-[4-(6-{[(3R)-1-(Cyclopropylcarbonyl)pyrrolidin-3-yl]methyl}-7-oxo-4,6-diazaspiro[2.4]hept-4-rn-5-yl)phenyl]-1,2-dimethyl-1,2-dihydro-3H-indazol-3-one] was tested. Which inhibition at 10 µM did it give?
The inhibition at 10 µM was 74%.

And the IC50?
Its IC50 is roughly 2.75 µM.

With `Cn1nccc1-c1ccc(-c2ccc(C3=NC4(CC4)C(=O)N3CC3CCN(C(=O)C4CC4)CC3)cc2)cc1` [compound 62, 6-{[1-(Cyclopropylcarbonyl)piperidin-4-yl]methyl}-5-[4′-(1-methyl-1H-pyrazol-5-yl)biphenyl-4-yl]-4,6-diazaspiro[2.4]hept-4-en-7-one] as the molecule, how does the inhibition at 10 µM read?
The inhibition at 10 µM was 29.3%.

And the IC50?
Its IC50 is greater than 10 µM.

Which results are given for `Cn1cc(-c2ccc(C3=NC4(CC4)C(=O)N3CC3CCN(C(=O)C4CC4)CC3)cc2)cn1` [compound 9, 6-{[1-(Cyclopropylcarbonyl)piperidin-4-yl]methyl}-5-[4-(1-methyl-1H-pyrazol-4-yl)phenyl]-4,6-diazaspiro[2.4]hept-4-en-7-one]?
inhibition at 10 µM: 11.4%; IC50: > 10 µM

`O=C(N1CC(CN2C(=O)C3(CCOCC3)N=C2c2ccc(-c3ccc4occc4c3)cc2)C1)C(F)(F)F` [compound 961, 2-(4-(benzofuran-5-yl)phenyl)-3-((1-(2,2,2-trifluoroacetyl)azetidin-3-yl)methyl)-8-oxa-1,3-diazaspiro[4.5]dec-1-en-4-one] was tested. Which inhibition at 10 µM did it give?
Its inhibition at 10 µM is 7%.

What about the IC50 of the same molecule?
Its IC50 is greater than 10 µM.

For `O=C(N1CCCC1)N1CC(CN2C(=O)C3(CCOCC3)N=C2c2ccc(-c3ccc4occc4c3)cc2)C1` [compound 705, 2-[4-(1-Benzofuran-5-yl)phenyl]-3-{[1-(pyrrolidin-1-ylcarbonyl)azetidin-3-yl]methyl}-8-oxa-1,3-diazaspiro[4.5]dec-1-en-4-one], which inhibition at 10 µM is on record?
The inhibition at 10 µM was 71%.

What about the IC50 of the same molecule?
The IC50 was 2.69 µM.

With `COC(=O)N1CC[C@@H](CN2C(=O)C3(CN(C(=O)OC)C3)N=C2c2ccc(-c3ccc(-c4cnn(C)c4)cc3)cc2)C1` [compound 906, (S)-methyl 7-((1-(methoxycarbonyl)pyrrolidin-3-yl)methyl)-6-(4′-(1-methyl-1H-pyrazol-4-yl)-[1,1′-biphenyl]-4-yl)-8-oxo-2,5,7-triazaspiro[3.4]oct-5-ene-2-carboxylate] as the molecule, how does the inhibition at 10 µM read?
Its inhibition at 10 µM is 14%.

And the IC50?
The IC50 was greater than 10 µM.

With `CC(O)C(=O)N1CC(CN2C(=O)C3(CCOCC3)N=C2c2ccc(-c3ccc4c(cnn4C)c3)cc2)C1` (stereo not shown) [compound 707, 3-{[1-(2-Hydroxypropanoyl)azetidin-3-yl]methyl}-2-[4-(1-methyl-1H-indazol-5-yl)phenyl]-8-oxa-1,3-diazaspiro[4.5]dec-1-en-4-one] as the molecule, how does the inhibition at 10 µM read?
Its inhibition at 10 µM is 55%.

And the IC50?
The IC50 was 6.46 µM.

`O=C(C1CC1)N1CC[C@@H](CN2C(=O)C3(CC3)N=C2c2ccc(-c3ccc4[nH]ncc4c3)s2)C1` [compound 424, 6-{[(3R)-1-(Cyclopropylcarbonyl)pyrrolidin-3-yl]methyl}-5-[5-(1H-indazol-5-yl)thiophen-2-yl]-4,6-diazaspiro[2.4]hept-4-en-7-one] was tested. Which inhibition at 10 µM did it give?
The inhibition at 10 µM was 68%.

And the IC50?
The IC50 was 3.98 µM.

Which inhibition at 10 µM does the source give for `CN(C)CC(=O)N1CCC2(CC1)N=C(c1ccc(-c3ccc(-c4cnn(C)c4)cc3)cc1)N(CC1CN(C(=O)C3CC3)C1)C2=O` [compound 768, 3-{[1-(Cyclopropylcarbonyl)azetidin-3-yl]methyl}-8-(N,N-dimethylglycyl)-2-[4′-(1-methyl-1H-pyrazol-4-yl)biphenyl-4-yl]-1,3,8-triazaspiro[4.5]dec-1-en-4-one] here?
The inhibition at 10 µM was 79%.

And the IC50?
Its IC50 is 1.45 µM.

Which inhibition at 10 µM does the source give for `Cc1cc(-c2cncc(Cl)c2)ccc1C1=NC2(CCCC2)C(=O)N1C[C@@H]1CCN(C(=O)C2CC2)C1` [compound 855, (R)-2-(4-(5-chloropyridin-3-yl)-2-methylphenyl)-3-((1-(cyclopropanecarbonyl)pyrrolidin-3-yl)methyl)-1,3-diazaspiro[4.4]non-1-rn-4-one] here?
Its inhibition at 10 µM is 52%.

And the IC50?
Its IC50 is greater than 10 µM.

How did the inhibition at 10 µM turn out when `O=C(C1CC1)N1CC(CN2C(=O)C3(CCNCC3)N=C2c2ccc(-c3ccc4occc4c3)cc2)C1` [compound 130, 2-[4-(1-Benzofuran-5-yl)phenyl]-3-{[1-(cyclopropylcarbonyl)azetidin-3-yl]methyl}-1,3,8-triazaspiro[4.5]dec-1-en-4-one] was run?
Its inhibition at 10 µM is 74%.

What about the IC50 of the same molecule?
Its IC50 is 3.8 µM.
